From patent US9834550B2, “Pyridopyrimidinone compounds for modulating the catalytic activity of histone lysine demethylases (KDMs)” (Dong-A Socio Holdings Co., Ltd., priority 2014, dated 2017) come the findings set out here.

Molecules are shown by their SMILES. Bounds are passed on as bounds.

In general, inhibition refers to how much of the control response was suppressed.

The experiment deals with T1, Recombinant human JARID1B/KDM5B (Homo sapiens, UniProt Q9UGL1).
T1 construct: purchased Active Motif 31432; host or cells: Sf9 insect cells
T1 sequence (Q9UGL1 whole entry): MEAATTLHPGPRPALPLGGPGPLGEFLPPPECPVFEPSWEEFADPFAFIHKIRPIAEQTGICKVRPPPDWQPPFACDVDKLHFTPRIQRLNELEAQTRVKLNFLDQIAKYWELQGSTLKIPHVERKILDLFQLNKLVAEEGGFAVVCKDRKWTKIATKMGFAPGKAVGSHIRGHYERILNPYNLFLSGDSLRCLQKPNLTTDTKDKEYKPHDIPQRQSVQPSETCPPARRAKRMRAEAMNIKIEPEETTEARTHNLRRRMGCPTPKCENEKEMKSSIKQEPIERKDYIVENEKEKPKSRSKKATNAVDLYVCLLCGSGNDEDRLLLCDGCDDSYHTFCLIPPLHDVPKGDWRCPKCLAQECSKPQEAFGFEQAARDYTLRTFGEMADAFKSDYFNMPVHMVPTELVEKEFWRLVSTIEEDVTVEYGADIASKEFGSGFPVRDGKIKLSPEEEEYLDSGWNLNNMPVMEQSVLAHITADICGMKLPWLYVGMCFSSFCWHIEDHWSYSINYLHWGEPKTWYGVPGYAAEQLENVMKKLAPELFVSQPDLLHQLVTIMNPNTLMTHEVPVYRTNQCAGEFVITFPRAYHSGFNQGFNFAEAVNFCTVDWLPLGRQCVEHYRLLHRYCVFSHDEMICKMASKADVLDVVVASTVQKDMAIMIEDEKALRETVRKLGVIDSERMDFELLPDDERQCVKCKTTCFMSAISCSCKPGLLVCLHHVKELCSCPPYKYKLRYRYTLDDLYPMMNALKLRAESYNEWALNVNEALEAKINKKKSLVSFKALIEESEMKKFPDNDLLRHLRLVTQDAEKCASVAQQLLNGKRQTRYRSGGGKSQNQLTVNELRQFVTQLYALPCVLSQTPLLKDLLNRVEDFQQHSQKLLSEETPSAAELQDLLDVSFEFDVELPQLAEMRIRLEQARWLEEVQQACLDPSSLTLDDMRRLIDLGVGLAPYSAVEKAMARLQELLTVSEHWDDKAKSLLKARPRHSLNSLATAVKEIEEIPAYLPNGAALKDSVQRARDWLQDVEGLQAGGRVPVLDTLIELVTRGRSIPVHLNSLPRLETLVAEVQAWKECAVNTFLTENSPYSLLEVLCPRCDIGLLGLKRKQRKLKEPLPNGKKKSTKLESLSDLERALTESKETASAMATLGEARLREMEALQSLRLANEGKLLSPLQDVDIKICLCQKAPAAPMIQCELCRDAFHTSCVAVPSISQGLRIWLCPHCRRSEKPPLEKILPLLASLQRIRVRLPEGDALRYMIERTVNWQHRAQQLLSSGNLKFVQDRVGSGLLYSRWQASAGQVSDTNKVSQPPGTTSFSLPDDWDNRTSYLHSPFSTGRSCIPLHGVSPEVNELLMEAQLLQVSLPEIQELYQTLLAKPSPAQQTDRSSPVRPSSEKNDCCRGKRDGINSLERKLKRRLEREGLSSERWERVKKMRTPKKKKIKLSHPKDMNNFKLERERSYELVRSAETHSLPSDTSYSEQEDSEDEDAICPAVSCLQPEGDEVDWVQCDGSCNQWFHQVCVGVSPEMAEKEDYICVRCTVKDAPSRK
Briefly: LANCE Ultra TR-FRET demethylase assay with FLAG-tagged JARID1B. In kind it is biochemical. To be noted: 100 nM compound; 500 nM biotinylated H3K4me3 peptide substrate. An excerpt:
FLAG-tagged JARID1B (also known as KDM5B) protein was screened against more than 170 compounds. For this compound screening, LANCE Ultra time-resolved fluorescence resonance energy transfer (TR-FRET) assay was employed using an europoium (Eu)-labeled antibody that can specifically recognize mono- or dimethylated peptides (H3K4me2/1) and ULight-streptavidin (ULight-SA), a small molecule fluorescent dye. When irradiated at 340 nm, the energy from the Eu donor is transferred to the ULight acceptor dye which, in turn, emits light primarily at 665 nm. The ratio between the intensity of primary emission at 665 nm and that of secondary emission at 590 nm was used to quantify the level of lysine methylation. As JARID1B removes more methyl moieties from tri-methylated substrate peptides (H3K4me3), the ratio increases until the enzyme reaction is terminated. In case, therefore, the compounds disrupt the enzymatic activity completely, the ratio becomes equal to a background value.
Recombinant human JARID1B/KDM5B (accession number NP_006609) of molecular weight 179.9 KDa was expressed in Sf9 insect cells and contains an N-terminal FLAG tag. The enzyme was obtained from Active Motif (Catalog No. 31432). The tri-methylated histone substrate peptide of purity greater than 95% was a synthetic peptide in which the first 21 amino acids correspond to the human histone H3 sequence with three extra amino acids and a biotin motif (GGK-biotin) linked to the C-terminus [sequence: ART-K (Me3)-QTARKSTGGKAPRKQLA-GGK-biotin-OH], (AnaSpec, Fremont, Calif. Catalog. No. ANA-1413). The reference inhibitory compound tranylcypromine (or trans-2-phenylcyclopropylamine hydrochloride, also known as, 2-PCPA) was purchased from Sigma (St. Louis, Mo. Cat. no. P8511). ULight-labeled streptavidin (ULight-SA, Catalog no. TRF0102), Eu-W1024-labeled anti-methyl-Histone H3 Lysine 4 (H3K4me1-2) Antibody (Catalog no. TRF0402), and LANCE detection buffer 10× (Catalog no. CR97-100) were obtained from PerkinElmer (Montreal, Quebec, Canada). The TR-FRET experiments were carried out in white, low-volume 384-wellplates purchased from PerkinElmer (ProxiPlate-384 Plus, Catalog no. 6008280).
The TR-FRET signal was measured in the presence both of the bio-H3K4me3 peptide and FLAG-JARID1B by detecting any H3K4me2/1 peptide produced in the assay system. Assays using only the bio-H3K4me2 peptide were served as a positive control. Robust enzymatic progressions were observed by using JARID1B at concentrations ranging from 10 to 30 nM. In a typical TR-FRET experiment, JARID1B was pre-incubated with or without 20 uM, 1 uM, or 0.1 uM of test-compounds (containing 1% DMSO final) for […]. The enzymatic reactions were initiated by the addition of 500 nM biotinylated H3K4me3 peptide substrate plus 500 uM of 2-OG, 25 uM Fe(II) and 2 mM ascorbate. The reaction buffer also contained 50 mM Hepes (pH7.5), 0.01% (v/v) Tween 20, and 50 mM NaCl. The reaction mixture was incubated for […] at room temperature before reading on an EnVision plate reader (PerkinElmer, Waltham, Mass.).
Background: Time-resolved FRET reads energy transfer from a long-lived donor to a nearby acceptor.
In the case of `O=C(CNCc1nccc2c(=O)[nH]c(COc3ccc(F)c(Cl)c3)nc12)N[C@H]1CC[C@H](N2CCCC2)O1` (relative stereo) [Example 233, 2-(((2-((3-chloro-4-fluorophenoxy)methyl)-4-oxo-3,4-dihydropyrido[3,4-d]pyrimidin-8-yl)methyl)amino)-N-(trans-5-(pyrrolidin-1-yl)tetrahydrofuran-2-yl)acetamide], the inhibition at 0.1 µM was greater than 50%.
For `COc1cc(OCc2nc3cnccc3c(=O)[nH]2)cc(OC)c1OC` [Example 39, 2-((3,4,5-trimethoxyphenoxy)methyl)pyrido[3,4-d]pyrimidin-4(3H)-one], the inhibition at 0.1 µM was less than 20%.
As for `O=C(NCCN1CCOCC1)c1cccc(OCc2nc3cnccc3c(=O)[nH]2)c1` [Example 40, N-(2-morpholinoethyl)-3-((4-oxo-3,4-dihydropyrido[3,4-d]pyrimidin-2-yl)methoxy)benzamide], the inhibition at 0.1 µM is less than 20%.
On to `O=c1[nH]c(COc2cccc(CNCc3ccccc3)c2)nc2cnccc12` [Example 42, 2-((3-((benzylamino)methyl)phenoxy)methyl)pyrido[3,4-d]pyrimidin-4(3H)-one], for which the inhibition at 0.1 µM is less than 20%.
As for `CCCOC1CCN(Cc2cccc(OCc3nc4cnccc4c(=O)[nH]3)c2)CC1` [Example 43, 2-((3-((4-propoxypiperidin-1-yl)methyl)phenoxy)methyl)pyrido[3,4-d]pyrimidin-4(3H)-one], the inhibition at 0.1 µM was 20 to 50%.
`O=c1[nH]c(COc2cccc(CNC3CCOCC3)c2)nc2cnccc12` [Example 44, 2-((3-(((tetrahydro-2H-pyran-4-yl)amino)methyl)phenoxy)methyl)pyrido[3,4-d]pyrimidin-4(3H)-one]: the inhibition at 0.1 µM was less than 20%.
As for `O=c1[nH]c(COc2cccc(CNCCN3CCOCC3)c2)nc2cnccc12` [Example 45, 2-((3-(((2-morpholinoethyl)amino)methyl)phenoxy)methyl)pyrido[3,4-d]pyrimidin-4(3H)-one], the inhibition at 0.1 µM was less than 20%.
On to `O=C(NCCC1CCNCC1)c1cc(OCc2nc3cnccc3c(=O)[nH]2)ccc1Cl` [Example 46, 2-chloro-5-((4-oxo-3,4-dihydropyrido[3,4-d]pyrimidin-2-yl)methoxy)-N-(2-(piperidin-4-yl)ethyl)benzamide], for which the inhibition at 0.1 µM was in the range of 20 to 50%.
In the case of `O=c1[nH]cnc2c(CNCC3CCCCC3)nccc12` [Example 85, 8-(((cyclohexylmethyl)amino)methyl)pyrido[3,4-d]pyrimidin-4(3H)-one], the inhibition at 0.1 µM is less than 20%.
Under `CCN(CC)CCCCNCc1nccc2c(=O)[nH]cnc12` [Example 86, 8-(((4-(diethylamino)butyl)amino)methyl)pyrido[3,4-d]pyrimidin-4(3H)-one] stands less than 20%; under `O=C1CCCN1CCCNCc1nccc2c(=O)[nH]cnc12` [Example 88, 8-(((3-(2-oxopyrrolidin-1-yl)propyl)amino)methyl)pyrido[3,4-d]pyrimidin-4(3H)-one], less than 20%; under `CN1CCC(CNCc2nccc3c(=O)[nH]cnc23)C1` (centres unmarked) [Example 92, 8-((((1-methylpyrrolidin-3-yl)methyl)amino)methyl)pyrido[3,4-d]pyrimidin-4(3H)-one], 20 to 50%.
As for `O=c1[nH]cnc2c(CNCC3CCNCC3)nccc12` [Example 93, 8-(((piperidin-4-ylmethyl)amino)methyl)pyrido[3,4-d]pyrimidin-4(3H)-one], the inhibition at 0.1 µM lay in the range of 20 to 50%.
Under `CC(NCc1nccc2c(=O)[nH]cnc12)C1CCNCC1` (centres unmarked) [Example 94, 8-(((1-(piperidin-4-yl)ethyl)amino)methyl)pyrido[3,4-c]pyrimidin-4(3H)-one] stands less than 20%.
The figure for `CN1CCC(CNCc2nccc3c(=O)[nH]cnc23)CC1` [Example 95, 8-((((1-methylpiperidin-4-yl)methyl)amino)methyl)pyrido[3,4-d]pyrimidin-4(3H)-one] is 20 to 50%; for `O=c1[nH]cnc2c(CNCC3CCN(Cc4ccccc4)CC3)nccc12` [Example 96, 8-((((1-benzylpiperidin-4-yl)methyl)amino)methyl)pyrido[3,4-d]pyrimidin-4(3H)-one] it is 20 to 50%.
For `CN1CCC(N2CCC(CNCc3nccc4c(=O)[nH]cnc34)CC2)CC1` [Example 97, 8-((((1′-methyl-[1,4′-bipiperidin]-4-yl)methyl)amino)methyl)pyrido[3,4-d]pyrimidin-4(3H)-one], the inhibition at 0.1 µM was in the range of 20 to 50%.
`O=c1[nH]cnc2c(CNC[C@@H]3CCCNC3)nccc12` [Example 98, (R)-8-(((piperidin-3-ylmethyl)amino)methyl)pyrido[3,4-d]pyrimidin-4(3H)-one]: the inhibition at 0.1 µM was less than 20%.
For the compound `O=c1[nH]cnc2c(CNC[C@H]3CCCNC3)nccc12` [Example 99, (S)-8-(((piperidin-3-ylmethyl)amino)methyl)pyrido[3,4-d]pyrimidin-4(3H)-one], the inhibition at 0.1 µM lay within 20 to 50%.
Turning to `CN1CCCC(CNCc2nccc3c(=O)[nH]cnc23)C1` (centres unmarked) [Example 100, 8-((((1-methylpiperidin-3-yl)methyl)amino)methyl)pyrido[3,4-d]pyrimidin-4(3H)-one], the inhibition at 0.1 µM was greater than 50%.
As to `O=c1[nH]cnc2c(CNCC3CCCN(Cc4ccccc4)C3)nccc12` (centres unmarked) [Example 101, 8-((((1-benzylpiperidin-3-yl)methyl)amino)methyl)pyrido[3,4-d]pyrimidin-4(3H)-one], the inhibition at 0.1 µM was in the range of 20 to 50%.
`O=c1[nH]c(COc2ccccc2Cl)nc2c(CNCC3CCN(Cc4ccccc4)CC3)nccc12` [Example 105, 8-((((1-benzylpiperidin-4-yl)methyl)amino)methyl)-2-((2-chlorophenoxy)methyl)pyrido[3,4-d]pyrimidin-4(3H)-one]: the inhibition at 0.1 µM is greater than 50%.
The figure for `O=c1[nH]c(COc2cccc(Cl)c2)nc2c(CNCC3CCN(Cc4ccccc4)CC3)nccc12` [Example 106, 8-((((1-benzylpiperidin-4-yl)methyl)amino)methyl)-2-((3-chlorophenoxy)methyl)pyrido[3,4-d]pyrimidin-4(3H)-one] is greater than 50%; for `O=c1[nH]c(COc2ccc(Cl)cc2)nc2c(CNCC3CCN(Cc4ccccc4)CC3)nccc12` [Example 107, 8-((((1-benzylpiperidin-4-yl)methyl)amino)methyl)-2-((4-chlorophenoxy)methyl)pyrido[3,4-d]pyrimidin-4(3H)-one] it is greater than 50%; for `O=c1[nH]c(COc2ccc(Br)cc2)nc2c(CNCC3CCN(Cc4ccccc4)CC3)nccc12` [Example 108, 8-((((1-benzylpiperidin-4-yl)methyl)amino)methyl)-2-((4-bromophenoxy)methyl)pyrido[3,4-d]pyrimidin-4(3H)-one] it is greater than 50%.
In the case of `O=c1[nH]c(COc2cccnc2)nc2c(CNCC3CCN(Cc4ccccc4)CC3)nccc12` [Example 109, 8-((((1-benzylpiperidin-4-yl)methyl)amino)methyl)-2-((pyridin-3-yloxy)methyl)pyrido[3,4-d]pyrimidin-4(3H)-one], the inhibition at 0.1 µM was 20 to 50%.
The figure for `O=c1[nH]c(COc2ccncc2)nc2c(CNCC3CCN(Cc4ccccc4)CC3)nccc12` [Example 110, 8-((((1-benzylpiperidin-4-yl)methyl)amino)methyl)-2-((pyridin-4-yloxy)methyl)pyrido[3,4-d]pyrimidin-4(3H)-one] is greater than 50%.
On to `O=c1[nH]c(COc2ccc(Cc3ccccc3)cc2)nc2c(CNCC3CCN(Cc4ccccc4)CC3)nccc12` [Example 111, 2-((4-benzylphenoxy)methyl)-8-((((1-benzylpiperidin-4-yl)methyl)amino)methyl)pyrido[3,4-d]pyrimidin-4(3H)-one], for which the inhibition at 0.1 µM is greater than 50%.
With `O=c1[nH]c(COc2cc(C(F)(F)F)ccc2Cl)nc2c(CNCC3CCNCC3)nccc12` [Example 112, 2-((2-chloro-5-(trifluoromethyl)phenoxy)methyl)-8-(((piperidin-4-ylmethyl)amino)methyl)pyrido[3,4-d]pyrimidin-4(3H)-one], the inhibition at 0.1 µM lay in the range of 20 to 50%.
